Measurements from ChEMBL document CHEMBL3045344, “Synthesis of d-amino acid peptides and their effect on beta-amyloid aggregation and toxicity in transgenic Caenorhabditis elegans” (Med Chem Res, 2013).
The source made the active and inactive calls. The rule behind the calls is not given here. Square brackets hold non-standard residues; d marks the D form. Peptide text beside a SMILES is read from it.

Legend:
[1] = molecular target: Amyloid-beta precursor protein (Homo sapiens) (UniProt P05067); experiment: Inhibition of amyloid beta (1-42) (unknown origin) fibril formation at Abeta42/compound molar ratio of 1:5 after 3 days by thioflavin T fluorescence method
[2] = molecular target: Amyloid-beta precursor protein (Homo sapiens) (UniProt P05067); experiment: Inhibition of amyloid beta (1-42) (unknown origin) oligomer formation after 48 hr by silver staining
[3] = molecular target: Amyloid-beta precursor protein (Homo sapiens) (UniProt P05067); experiment: Inhibition of amyloid beta (1-42) (unknown origin) aggregation at Abeta42/compound molar ratio of 1:1 after 3 days by turbidity based assay
[4] = molecular target: Amyloid-beta precursor protein (Homo sapiens) (UniProt P05067); experiment: Stabilization of random coil conformation of amyloid beta (1-42) (unknown origin) after 3 days by CD spectroscopy
[5] = molecular target: Amyloid-beta precursor protein (Homo sapiens) (UniProt P05067); experiment: Induction of amyloid beta (1-42) (unknown origin) assembly assessed as mixed fibril and spherical aggregate formation after 3 days by ThT stain based fluorescence microscopy
Caenorhabditis elegans [6] = experiment: Increase in survival of transgenic Caenorhabditis elegans CL2006 expressing human amyloid beta42 at 124 ug/ml; format: functional, organism-based
[7] = molecular target: Amyloid-beta precursor protein (Homo sapiens) (UniProt P05067); experiment: Inhibition of amyloid beta (1-42) (unknown origin) aggregation at Abeta42/compound molar ratio of 1:5 after 3 days by turbidity based assay
[8] = molecular target: Amyloid-beta precursor protein (Homo sapiens) (UniProt P05067); experiment: Inhibition of amyloid beta (1-42) (unknown origin) fibril formation at Abeta42/compound molar ratio of 1:1 after 3 days by thioflavin T fluorescence method
[9] = molecular target: Amyloid-beta precursor protein (Homo sapiens) (UniProt P05067); experiment: Binding affinity to amyloid beta (1-42) (unknown origin) assessed as increase in hydrophobic site exposure at Abeta42/compound molar ratio of 1:5 after 3 days by ANS fluorescence analysis
[10] = molecular target: Amyloid-beta precursor protein (Homo sapiens) (UniProt P05067); experiment: Binding affinity to amyloid beta (1-42) (unknown origin) assessed as increase in hydrophobic site exposure at Abeta42/compound molar ratio of 1:1 after 3 days by ANS fluorescence analysis
[11] = molecular target: Amyloid-beta precursor protein (Homo sapiens) (UniProt P05067); experiment: Inhibition of amyloid beta (1-42) (unknown origin) assembly assessed as decrease in fibril formation after 3 days by ThT stain based fluorescence microscopy
[12] = molecular target: Amyloid-beta precursor protein (Homo sapiens) (UniProt P05067); experiment: Induction of amyloid beta (1-42) (unknown origin) aggregation at Abeta42/compound molar ratio of 1:1 after 3 days by turbidity based assay
[13] = molecular target: Amyloid-beta precursor protein (Homo sapiens) (UniProt P05067); experiment: Induction of amyloid beta (1-42) (unknown origin) aggregation at Abeta42/compound molar ratio of 1:5 after 3 days by turbidity based assay
[14] = molecular target: Amyloid-beta precursor protein (Homo sapiens) (UniProt P05067); experiment: Induction of amyloid beta (1-42) (unknown origin) oligomer formation after 48 hr by silver staining
Caenorhabditis elegans [15] = experiment: Increase in survival of transgenic Caenorhabditis elegans CL2006 expressing human amyloid beta42 at 123 ug/ml; format: functional, organism-based

Amyloid-beta precursor protein (Homo sapiens), sequence (P05067 whole entry): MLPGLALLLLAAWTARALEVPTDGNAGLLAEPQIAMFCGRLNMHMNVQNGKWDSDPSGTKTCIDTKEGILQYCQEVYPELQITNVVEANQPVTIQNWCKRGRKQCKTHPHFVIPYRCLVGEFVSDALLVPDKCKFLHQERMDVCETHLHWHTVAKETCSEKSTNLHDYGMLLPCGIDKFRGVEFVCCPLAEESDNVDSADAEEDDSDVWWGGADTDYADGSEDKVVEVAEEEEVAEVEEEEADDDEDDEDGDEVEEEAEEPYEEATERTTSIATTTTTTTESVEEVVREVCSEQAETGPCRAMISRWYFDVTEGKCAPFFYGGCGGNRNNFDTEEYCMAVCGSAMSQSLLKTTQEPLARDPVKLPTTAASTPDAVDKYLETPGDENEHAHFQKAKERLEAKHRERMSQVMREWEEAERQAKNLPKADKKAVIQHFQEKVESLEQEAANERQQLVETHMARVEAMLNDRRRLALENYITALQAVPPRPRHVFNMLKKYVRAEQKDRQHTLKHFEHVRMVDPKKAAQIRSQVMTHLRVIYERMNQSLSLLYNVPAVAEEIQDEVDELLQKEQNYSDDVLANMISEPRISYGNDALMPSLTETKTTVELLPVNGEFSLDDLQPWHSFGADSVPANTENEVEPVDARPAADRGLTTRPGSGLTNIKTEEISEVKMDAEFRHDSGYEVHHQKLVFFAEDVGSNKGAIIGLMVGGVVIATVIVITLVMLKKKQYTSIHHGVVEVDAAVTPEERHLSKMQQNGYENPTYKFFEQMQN

Compound | inhibition [1] | inhibition [2] | inhibition [3] | Activity [4] | Activity [5] | Activity (Caenorhabditis elegans [6]) | inhibition [7] | inhibition [8] | Activity [9] | Activity [10] | inhibition [11] | Activity [12] | Activity [13] | Activity [14] | Activity (Caenorhabditis elegans [15])
CC(C)C[C@@H](NC(=O)[C@@H](CCCCN)NC(=O)CNC(=O)[C@H]1CCCN1)C(=O)N[C@@H](C(=O)N[C@H](Cc1ccc(O)cc1)C(=O)N[C@H](C)C(=O)O)C(C)C | inactive | Active | Active | Active | Active | Active | Active | inactive | Active | Active | – | – | – | – | –
CC(C)C[C@@H](NC(=O)[C@@H](CCCCN)NC(=O)[C@H](N)CCCCN)C(=O)N[C@@H](C(=O)N[C@H](Cc1ccccc1)C(=O)N[C@H](Cc1ccccc1)C(=O)N[C@H](C)C(=O)N[C@H](CCCNC(=N)N)C(=O)N[C@H](CCCNC(=N)N)C(=O)N[C@H](CCCNC(=N)N)C(=O)N[C@H](CCCNC(=N)N)C(=O)N[C@H](C)C(=O)O)C(C)C | Active | – | – | Active | – | – | – | Active | Active | Active | Active | Active | Active | Active | inactive
CC(C)C[C@@H](NC(=O)[C@@H](CCCCN)NC(=O)[C@H](N)CCCCN)C(=O)N[C@@H](C(=O)N[C@H](Cc1ccccc1)C(=O)N[C@H](Cc1ccccc1)C(=O)N[C@H](C)C(=O)O)C(C)C (H-[dK][dK][dL][dV][dF][dF][dA]-OH) | Active | Active | – | Active | – | Active | – | Active | Active | Active | Active | Active | Active | – | –
